Experimental data published in patent US10676436B2, “NLRX1 ligands” (Landos Biopharma, Inc., priority 2018, dated 2020).

Key:
[1] = tested on: MDR1a−/− model of colitis; experiment: MDR1a−/− model of colitis (chronic model of IBD); format: in vivo, mice
Protocol: MDR1a−/− model. Mice deficient in MDR1a spontaneously develop colitis. MDR1a−/− began receiving NX-13 treatment (oral, 20 mg/kg) at 4 weeks of age and continued treatment until 10 weeks of age. Mice were weighed and scored weekly. NX-13 was prepared within a 0.5% methylcellulose (12-15 cP) solution. Dosage used was 20 mg/kg delivered once daily. Mice were weighed on a weekly basis to update dosage formulation. Dosage was calculated based off mean body weights for each gender. Oral dosage was delivered by orogastric gavage of dosage in 0.2 mL volume. Colons were collected into RPMI/FBS buffer containing collagenase (300 U/mL) and DNase (50 U/mL) for digestion. Tissues were digested for 60 minutes under stirring at 37° C. Resultant cellular suspensions were filtered through 100 μm strainers, centrifuged (300× g, 8 min), and washed in fresh RPMI. Following filtration of the resulting single cell suspensions, immune cells were purified by Percoll gradient of cell-containing 40% Percoll overlayed onto 70% Percoll solution. After centrifugation, interphase was collected and washed to obtain enriched colonic lamina propria cell fractions. Cells were labeled with mixtures of extracellular (CD45, CD3, CD4, CD8, CD19, NK1.1, CD25, F4/80, CD11b, Gr1, CX3CR1, CD64) and intracellular (Tbet, RORγT, FOXP3, IFNγ, IL17, IL10) antibodies in a sequential live staining in 96-well plates. Data was acquired using a FACS Celesta flow cytometer with FACSDiva software. H&E stained colonic sections were prepared from portions of colons collected into 10% buffered formalin and embedded in paraffin. Slides were examined by a board-certified veterinary pathologist via an Olympus microscope and images were collected with Image-Pro software. Samples were scored (0-4) for leukocytic infiltration, epithelial erosion and mucosal thickening.

[2] = tested on: peripheral blood mononuclear cells (PBMCs) of ulcerative colitis patients; experiment: Ex vivo treatment of PBMCs of ulcerative colitis patients, flow cytometry; format: cell-based, human
Protocol: Samples were obtained from male and female donors clinically categorized as having moderate to severe disease. Age and current medications were not used as exclusion criteria. Whole blood was collected into heparinized vacuum tubes. Whole blood was diluted 1:3 volumes with sterile phosphate buffered saline. LeucoSep (Greiner) were prepared by addition of Lymphocyte Separation Media followed by 15 second centrifugation at max speed. Diluted whole blood was added to LeucoSep tubes. After centrifugation (2000×g, 20 min), PBMCs were collected from the interphase by Pasteur pipette. Remaining red blood cells were lysed by hypotonic lysis and suspension was filtered through a […] cell strainer. PBMCs were washed and re-suspended in sterile cell culture media, RPMI containing 10% fetal bovine serum, 2.5% Hepes solution, 1% L-glutamine, 1% penicillin/streptomycin, 1% sodium pyruvate, and 1% essential amino acids (complete RPMI).
Target cells were incubated for 24 h in complete RPMI culture media at 37° C. Cells were incubated in the presence of NX-13 ranging in concentration from 1 nM to 100 nM. NX-13 stock solution was prepared at 100 mM in dimethyl sulfoxide (DMSO) and diluted to desired concentration in culture media. DMSO concentrations were adjusted to be equal across all doses and vehicle treatments. Six hours prior to assay, cells were stimulated with phorbol 12-myristate 13-acetate (PMA) and ionomycin to stimulate cellular activation. Cells were assayed for desired data at 24 h.
Prior to collection, cells were incubated BD GolgiStop (2 μL GolgiStop to 3 mL of total media) to allow intracellular accumulation of cytokines. Cells were live stained with extracellular (CD45, CD3, CD4, CD8, CD11b) and intracellular (FOXP3, IL-10, IL-4, IFNγ, TNFα) in a sequential manner. Data was acquired on a BD FACs Celesta and analyzed using FACSDiva. Non-viable and non-singlet cells were excluded from analysis. Data is presented as percentage of CD45+ cells or % viable, singlets.

[3] = tested on: CD4+ T cells; experiment: Immunological screening in vitro in CD4+ splenocytes, flow cytometry; format: cell-based, C57BL/6 mice
From the text: Spleens were excised from C57BL/6 mice. Spleens were crushed between the frosted ends of microscope slides and filtered to provide a cellular suspension. Red blood cells were lysed through hypotonic lysis. Remaining cells were washed and filtered. CD4+ T cells were enriched within the suspension using magnetic sorting based negative selection. Cells were collected and plated within 96 well plates coated with anti-CD3 and cultured in the presence of NX-13, NX-37, NX-43, NX-44, or NX-50 at 0, 0.1, 1 or 10 micromolar; NX-53, NX-54, NX-55, or NX-56 at 0, 0.1, or 1 micromolar; or NX-45 at 10, 50 or 100 nanomolar for 48 h. During the last 6 h of culture, cells were stimulated with phorbol 12-myristate-13-acetate (PMA) and ionomycin.
Cells were collected from 96 well plates and stained with a cocktail of antibodies for immunophenotyping by flow cytometry. Culture supernatant was collected and assayed for cytokine concentrations by cytometric bead array. Data was captured on a BD FACS Celesta and analyzed using FacsDiva.

[4] = six weeks of treatment, flow cytometry
[5] = ulcerative colitis samples, 1 nM
[6] = ulcerative colitis samples, 1 to 100 nM, 24 h
[7] = wild-type cells, 48 h, PMA and ionomycin

For `Cc1cccc(Oc2cc(Oc3cccc(C)n3)cc(Oc3cccc(C)n3)c2)n1` [NX-13, 1,3,5-tris (6-methylpyridin-2-yloxy) benzene], the “development of leukocyte aggregates and thickening of the mucosa” value ([1]; after six weeks of treatment) was “protected against”, the “overall leukocytic infiltration and epithelial erosion” value ([1]; after six weeks of treatment) was “reduced” and the “maximal observed reduction of disease activity” value ([1]; oral 20 mg/kg once daily, week six of treatment) was 70%. The colonic pathology ([1]; oral, six weeks of treatment, H&E) was “greatly reduced”, the “numbers of F4/80hi macrophages” value [1, 4] was “greatly reduced” and the “numbers of IL-17 and IFNγ producing T cells” value [1, 4] was “greatly reduced”. The “proportions of Th1 cells in the colonic lamina propria” value [1, 4] was “reduces”, the “proportions of neutrophils in the colonic lamina propria” value [1, 4] was “reduces” and the “proportions of regulatory CD4+ T (Treg) cells in the colon” value [1, 4] was “increased”. For the same molecule, the “amount of TNFα present in each cell (mean fluorescent intensity)” value ([2]; in a dose dependent manner) was “reduced”, the “concentrations with significant reductions of IFNγ producing cells” value ([2]; ulcerative colitis samples) was ≥ 10 nM and the “concentrations with significant reductions of TNFα producing cells” value ([2]; ulcerative colitis samples) was ≥ 10 nM. The “IFNγ producing cells at 1 nM” value [2, 5] was “significant decrease”, the “TNF producing cells at 1 nM” value [2, 5] was “significant reductions were not observed” and the “percentage of IFNγ producing CD4+ T cells” value [2, 6] was “decreased”. The “percentage of TNFα producing CD4+ T cells” value [2, 6] was “decreased”, the “function at NLRX1 concluded from the cytokine results” value [3] was “activators of NLRX1” and the “effects on IFNγ and TNFα producing CD4+ T cells in the absence of NLRX1” value ([3]; NLRX1 deficient cells) was “these effects were lost”. The “proportion of IFNγ producing (IFNγ+) CD4+ T cells” value [3, 7] was “reduced” and the “proportion of TNFα producing (TNFα+) CD4+ T cells” value [3, 7] was “reduced”.
